Assay results as given in patent publication US11485728B2, “Small molecules for the treatment of autoimmune diseases and cancer” (Athos Therapeutics, Inc., priority 2020, dated 2022).
pIC50: −log10 of the molar value. One block for each compound: values may come before it.

What was measured:
HCT-116 = HCT-116 cell viability (Real-Time-Glo); type: cell-based; settings: Homo sapiens, 72 hr, read-out: IC50, Cell line: HCT-116
Method: (§1) To determine the plating density for cell viability assays, for each cell line, cells were counted and diluted to final densities of 2.5, 5, 10 and 20 thousand per 100 μl of their respective growth media per well in 96 well plates. A Promega Real-Time-Glo cell viability kit was used to determine the optimal concentration for cell plating so that each cell line would be within the linear part of its growth curve after 72 hrs in culture. […] Test compounds were then added at different concentrations for the creation of six-point curve and cell density was determined using the Promega Real-Time-Glo cell viability kit after 24, 48, and 72 hrs in culture.

[1] = tested on: HT-29 colorectal cancer cells; test: HT-29 cell viability (Real-Time-Glo); type: cell-based; settings: Homo sapiens, HT-29; 72 hr; read-out: IC50, Cell line: HT-29
Method: Equal volume of 2× RealTime-Glo™ reagent (2 μl of MT Cell Viability Substrate 1,000×, and 2 μl of NanoLuc® Enzyme 1,000×, per 1 ml of media, Promega) was added to each well and cells were incubated at 37° C. Luminescence was evaluated at 72 h.
as §1
Specifically, the Promega Real-Time-Glo cell viability kit was used to determine the optimal concentration for cell plating so that each cell line would be within the linear part of its growth curve after 72 hrs in culture. […] Test compounds are then added at different concentrations for the creation of six-point curve and cell density is determined using the Promega Real-Time-Glo cell viability kit after 24, 48, and 72 hrs in culture. […]

PAMPA permeability = settings: PAMPA, 5 hours at RT
[2] = Formulation visual stability (DMA/PG/PEG 300/water); type: physicochemical; settings: 25° C., 10-11 mg/mL in DMA/PG/PEG 300/Water
Method: All formulations were conducted with FDA approved excipients and with high purity material such as USP grade quality. Formulation stability of test articles are performed using HPLC purity method described within analytical section. This formula may be used for oral administration of the compounds described herein; […]. Since these compounds have high solubility in lower pH as described in the solubility study section, the intervenous delivery is performed with 100% phosphate buffer solution of pH 6.5 allowing up to 7 mg/mL concentration. The formulated test articles can be store at 4° C. Prior to dosing, it should be warmed and vortexed for about 1 min to make a homogenous solution. If needed, filter through 0.2 μM syringe filter to maintain clean and sterile.

[3] = In-vitro half-life in human liver microsomes; type: in vitro ADME; settings: Human liver microsomes 0.5 mg/mL; 1 μg/mL drug; NRS; read-out: Metabolic Half-life
Method: (§2) In each of the species (human, rat, mouse) of liver matrix to be tested, a working concentration of 2 μg/mL was prepared of each test article from the 0.5 mg/mL DMSO stock solution by adding 3 μL of 0.5 mg/mL test article stock solution to 747 μL of the 1 mg/mL liver matrix. Incubation was performed at 37±2° C. with gentle, continuous mixing in shaking water bath in 2.0 mL-well capacity 96-Deepwell plates (96-DWP). Samples were retrieved in duplicate at the following time points: 0, 5, 10, 15, 30 and 60 minutes. The final mixture contained 1 μg/mL of drug and 0.5 mg/mL of liver matrix. First, 50 μL of test articles in liver matrix was added to the 96-DWP and pre-warmed the mixture in the 96-DWP for 2 minutes in the 37° C. water bath. The enzymatic reaction was started by the addition of 50 μL of the corresponding 2× NADPH regenerating system (NRS) cofactor solution to all sample wells and stopped by the addition of 300 μL of stop solution (acetonitrile containing 10 ng/mL Tolbutamide as an internal standard (I.Std.). The samples were agitated for 10 minutes and then centrifuged for 20 minutes at 4500 rpm. 25 μL of supernatant was diluted with 475 μL acetonitrile containing I. Std. into a new 96-DWPs for LC-MS/MS analysis.
(§3) Half-life calculations were generated and calculated by Graphpad Prism® software. The half-life of test compound was calculated based on the first-order reaction kinetics. The data was transformed to linear regression (y=log(y) where “y” axis represents the % compound remaining at any given time with respect to time 0 minutes; “x” axis represents time in minutes) in order to calculate the half-life.
(§4) A comparison of metabolic stability in time-course incubation experiments in varying species of liver can provide information of pharmacokinetic properties of drugs attributable to species-related differences in hepatic metabolism. The results of these experiments often assist in further applications such as assessing in vitro metabolite profiling and choosing relevant species for toxicology studies based on similarities relative to the metabolic stability to the human profile. For these experiments, the test compound was tested in parallel with a positive control, Dasatinab, in an enzymatic reaction solution of each species (human and rat) of liver microsomes containing a NADPH regenerating system (NRS). The final mixture contained 1 μg/mL of drug and 0.5 mg/mL of liver matrix. Incubations were performed at 37±2° C. with gentle, continuous mixing in shaking water bath in 96-Deep well plates. The stability of the test compound is monitored using fast, specific and sensitive LC/MS/MS analysis.

[4] = In-vitro half-life in mouse liver microsomes; type: in vitro ADME; settings: Mouse liver microsomes 0.5 mg/mL; 1 μg/mL drug; NRS; read-out: Metabolic Half-life
Method: as §2, §3, §4

[5] = In-vitro half-life in rat liver microsomes; type: in vitro ADME; settings: Rat liver microsomes 0.5 mg/mL; 1 μg/mL drug; NRS; read-out: Metabolic Half-life
Method: as §2, §3, §4

[6] = cited from earlier work
mouse = settings: oral; cited from earlier work

pIC50 (HCT-116): 5.00 to 5.30 | pIC50 [1]: 4.70 to 5.00 | Papp at 5 h, 20 μM (PAMPA permeability; PAMPA permeability Classification, 20 μM donor): < 0.055 ×10⁻⁶ cm/s | Papp at 5 h, 20 μM (PAMPA permeability; Permeability, Pe, 20 μM donor in PBS/MeOH 90:10): 0.00971 ×10⁻⁶ cm/s | Appearance ([2]; 30 min): clear | Appearance ([2]; 1 h): clear | Appearance ([2]; 5 h): clear | Appearance ([2]; 24 h): clear | Appearance ([2]; 7 d): clear | half-life at 1 μg/mL [3]: > 1 h | half-life at 1 μg/mL [4]: > 1 h | half-life at 1 μg/mL [5]: > 1 h
Compound: COc1cc2c(NC3CCN(C4CCCCC4)CC3)nc(N3CCCN(C(C)C)CC3)nc2cc1OCCCN1CCCCC1 [Compound 402, reference compound]

Compound: O=C(O)Cc1ccccc1Nc1c(Cl)cccc1Cl [Diclofenac]
permeability of positive control (published) [6]: high permeability

Compound: CC(O)CO (centres unmarked) [PG, propylene glycol]
LD50 (mouse): 22000 mg/kg
